US20230380419A1, “NANOCOMPOSITE COMPOSITIONS COMPRISING MULTI-VALENT METAL MATERIAL AND IMMOBILIZED QUAT MATERIAL, METHODS OF MAKING THE COMPOSITIONS AND METHODS OF USING THE COMPOSITIONS” (UNIVERSITY OF CENTRAL FLORIDA RESEARCH FOUNDATION, INC., priority 2015, published 2023)

What was measured:
E. coli = assay: Minimum Inhibitory Concentration (MIC) assay, broth microdilution and alamar blue; type: cell-based; settings: single-active controls; 24 hours incubation
X. alfalfae = assay: as above; type: cell-based; settings: single-active controls; 24 hours incubation
Procedure: Although not depicted in the figures, the antimicrobial properties of LSP materials and components were studied using standard microbiological technique to determine the Minimum Inhibitory Concentration (MIC). Samples were tested against Gram-negative Xanthomonas alfalfae subsp. citrumelonis strain F1 (ATCC 49120, a citrus canker surrogate), Gram-negative Pseudomonas syringae pv. syringae (ATCC 19310, causative agent of bacterial speck in Lilac, almond, apricots, peaches and wild beans among others) and Gram positive Clavibacter michiganensis subsp. michiganensis (ATCC 10202, causative agent of bacterial wilt and canker in Tomato sp). X. alfalfae and P. syringae were maintained with nutrient agar and broth while C. michiganensis was grown with brain heart infusion (BHI) media. All bacteria were grown at 26° C. in a shaking incubator (150 rpm).
Minimum Inhibitory Concentration (MIC) Assay
MIC was determined using two different methods: • a. Broth microdilution: Protocols as delineated by the Clinical and Laboratory Standards Institute (CLSI) were followed for conducting MIC studies to be in compliance with American Society of Microbiology guidelines. […] Since broth microdilution is based only on light absorbance, low concentration of bacteria can fall below the detection limit of the traditional optical density measurement. […]

## O=S(=O)([O-])[O-].[Cu+2] [CuSO4]
E. coli
  MIC E. coli: 250-500 μg active/mL
X. alfalfae
  MIC X. alfalfae: 125-250 μg active/mL

## CCCCCCCCCC[N+](C)(C)CCCCCCCCCC.[Cl-] [Quat, Didecyl Dimethyl Ammonium Chloride]
E. coli
  MIC E. coli: 2-4 μg active/mL
X. alfalfae
  MIC X. alfalfae: 2-4 μg active/mL
